Source: patent publication US20160340652A1, “CULTURE MEDIUM FOR STEM CELL DIFFERENTIATION” (The USA, as represented by the Secretary, Dept. of Health …, priority 2013, published 2016)

B1: heparinase I: bacteroides enzyme that selectively cleaves the glycosidic linkage between hexosamines and uronic acids in heparin (protein, UniProt Q05819 22-384, looked up)
Heparin lyase I: QQKKSGNIPYRVNVQADSAKQKAIIDNKWVAVGINKPYALQYDDKLRFNGKPSYRFELKAEDNSLEGYAAGETKGRTELSYSYATTNDFKKFPPSVYQNAQKLKTVYHYGKGICEQGSSRSYTFSVYIPSSFPDNATTIFAQWHGAPSRTLVATPEGEIKTLSIEEFLALYDRMIFKKNIAHDKVEKKDKDGKITYVAGKPNGWKVEQGGYPTLAFGFSKGYFYIKANSDRQWLTDKADRNNANPENSEVMKPYSSEYKTSTIAYKMPFAQFPKDCWITFDVAIDWTKYGKEANTILKPGKLDVMMTYTKNKKPQKAHIVNQQEILIGRNDDDGYYFKFGIYRVGNSTVPVTYNLSGYSETAR

Columns and labels:
hPSCs = assay: Cardiomyocyte differentiation in monolayer in E8 basal medium, CTNT/NKX2.5 flow cytometry and staining; format: cell-based, human; conditions: for efficiencies of cardiac differentiation: different WNT inhibitors in the presence of heparin, CTNT FACS, 10 days
Text: (§1) Cardiomyocyte differentiation in monolayer: When hPSCs had grown to 80-90% confluent, 2-3 days after plating, the medium was changed from E8 to differentiation basal medium, which contains E8 basal medium (DMEM F-12, L-ascorbic acid, Selenium, Transferrin, and NaHCO3), 1× Chemically Defined Lipid Concentrate (100×, Life Technologies, 11905-031; a commercially-available lipid mixture of Arachidonic Acid, Cholesterol, DL-α-Tocopherol Acetate, Ethyl Alcohol 100%, Linoleic Acid, Linolenic Acid, Myristic Acid, Oleic Acid, Palmitic Acid, Palmitoleic Acid, Pluronic F-68, Stearic Acid, Tween 80™) and 1× Pen Strep (Life Technologies, 15140-122). That day was defined as day 0. CHIR99021 (5 uM, Tocris, 4423) was added into differentiation basal medium at day 0 for 24 hrs. IWP2 (3 uM, Tocris, 3533) was added from day 2 to day 5. Heparin was added into the medium at indicated dosages and timeline. Insulin (20 ug/ml, Sigma, 19278) was added into differentiation basal medium to maintain cardiomyocytes from day 7 onward. The medium was changed daily until day 7, and then changed every 2-3 days from day 7 onward. The growth factors, inhibitors, and enzymes used in culture were: Activin A (10 ng/ml, R&D, 338-AC/CF), BMP4 (10 ng/ml, R&D, 314-BP/CF), FGF2 (100 ng/ml, Peprotech, 100-18B), TGFβ1 (1.74 ng/ml, R&D, 240-B/CF), Dorsomorphin (3 μM, Stemgent, 04-0024), LDN-193189 (0.1 μM, Stemgent, 04-0074), PD0325901 (1 μM, Stemgent, 04-0008), SB431542 (3 μM, Selleckchem, s1067), Heparin (Sigma, H3149), Heparinase I (New England Biolabs, P0735S).
Immunofluorecence staining: Cells cultured in monolayer were fixed in 2% PFA for 10 minutes at room temperature, washed with PBS and permeabilized with 0.2% Triton X-100/PBS for 3 minutes. After successive washes in PBS, the cells were blocked in 10 mg/ml BSA for 30 minutes and incubated with primary antibody for 1 hour at room temperature. Cells were then washed 3 times with PBS for 5 minutes and incubated with secondary antibodies (Alexa 488 or 594-conjugated) for 1 hour. DAPI was applied for nuclei staining. The following primary antibodies were used for immunofluorescence: alpha actinin (mouse, 1:1000, A7811, Sigma), CTNI (cardiac troponin I, rabbit, 1:200, sc-15368, Santa Cruz), CTNT (cardiac troponin T, mouse, CT3, 1:1000, DSHB), Desmin (mouse, 1:100, M0760, DaKo) NKX2.5 (rabbit, ab35842; 1:200, Abcam).
Flow cytometry assay: Cells differentiated for 10 days in monolayer were dissociated with TrypLE (Invitrogen) for 5 minutes. Single cells were washed off and suspended by DMEM/10% FBS followed by centrifugation. The pellets were washed by PBS once and fixed by 2% PFA for 5 minutes. After washing with PBS and centrifuging, permeabilization was performed by 0.3% Triton X-100 for 3 minutes. The cells were centrifuged and re-suspended with 1% BSA to block unspecific binding of antibody, followed by incubation with primary antibodies (diluted in 1% BSA) for 1 hour. After washed, the cells were incubated with second antibodies conjugated with FITC or PE (Invitrogen, 1:1000 diluted in PBS) for 30 minutes. The cells were washed once and suspended in PBS for the flow cytometry assay.
The inventors developed an E8 basal medium (consisting of E8 media without NaHCO3, insulin, bFGF, or TGFβ; i.e., containing DMEM/F-12, L-ascorbic acid, selenium, and transferrin). This E8 basal medium was used in a differentiation protocol for human H1 ESCs with initial WNT activation (using GSK3β inhibitor, CHIR99021) applied to the cells in culture at days 0-1 (i.e., days following initiation of the stem cell differentiation protocol; day 0 is the day on which the stem cell differentiation protocol begins when the previously plated cells reach at least 75% confluence and the specific cell culture media are applied to the cells to being the cardiomyocyte differentiation protocol, day 1 is the next day in which specific media may be applied to the cells, and day 2 is the following day, etc.). […]

[1] = test system: Brachyury (T), Wnt3A, Axin2, KDR, GATA4; assay: Real-time PCR of stage-specific marker expression during cardiac differentiation; format: cell-based, human
Protocol: Real-time PCR: RNA was purified using TRI Reagent™ Solution according to Ambion's protocol. Residual DNA was removed using the TURBO DNA-Free™ kit. Reverse transcription was carried out with Maxima H Minus Reverse Transcriptase (Thermo Scientific) primed with Poly N15-mer (Eurofins) with the recommended protocol. Prior to PCR, RNA template was removed with addition of Ambion Ribonuclease H from E. coli. Real-time PCR was performed on the BIO-RAD CFX96 using SsoAdvanced™ Universal SYBR® Green Supermix. PCR primers were listed in the supplementary table.
To investigate the function of heparin in mesoderm determination and cardiac specification, stage-specific marker expression levels were measured by qPCR (FIG. 33).

H1 ESCs = assay: Live cell number yield after 10 days differentiation; format: cell-based, human; conditions: WNT inhibitor in the presence of heparin
Text: as §1, with “The growth factors, inhibitors, and enzymes used in culture were: Activin A (10 ng/ml, R&D, 338-AC/CF), BMP4 (10 ng/ml, R&D, 314-BP/CF), FGF2 (100 ng/ml, Peprotech, 100-18B), TGFβ1 (1.74 ng/ml, R&D, 240-B/CF), Dorsomorphin (3 μM, Stemgent, 04-0024), LDN-193189 (0.1 μM, Stemgent, 04-0074), PD0325901 (1 μM, Stemgent, 04-0008), SB431542 (3 μM, Selleckchem, s1067), Heparin (Sigma, H3149), Heparinase I (New England Biolabs, P0735S).” left out

NKX2-5, TBX5 and TNNT2 = assay: qPCR of cardiac markers after Test 3 protocol differentiation; format: cell-based, human
Protocol: Expression of Nkx.2, TBX5 and cTnT are shown as determined by qPCR. qPCR was performed assess relative mRNA expression of cardiac markers for cells following Test3 protocol differentiation.
Gene expression during differentiation was examined, and it was shown that the new factors affected specific gene expression during differentiation.

[2] = test system: cardiomyocyte differentiation; assay: Cell death/survival during cardiomyocyte differentiation in supplemented E8 medium (Test 1 and Test 3); format: cell-based, human; conditions: Test 1 and Test 3, cell survival at day 3
Text: Cell survival at day 3 is shown.

Human ESCs = assay: High density survival screening of human ESCs in E8 medium with additives (Alkaline Phosphatase staining); format: cell-based; conditions: for cell death and differentiation at high density: E8 medium supplemented, 5 days after initial confluence; for pluripotent stem cell survival and differentiation efficiency: E8 medium, cells near confluence, additives added, AP staining
Protocol: H1 hESCs were cultured in E8 media to 60% confluence, and then continually cultured for 2 days in E8 media with indiated additives. Alkaline Phosphatase (AP) staining was performed to show the pluripotent stem cells. Dark staining represents the survival of hESC colonies.
Additives are indicated (glycogen, glycogen+lipid+heparin). H1 and H9 hESCs were cultured in E8 media to 60% confluence, and then continually cultured for 2 days in E8 media with indicated additives. Two parallel experiments were performed in incubators in either good or bad condition.
FIGS. 6a and 6b show cell proliferation and spontaneous differentiation at high density with trehalose and CM-dextran. In FIG. 6a, HI hESCs were cultured in E8 media to >90 confluence, and then continually cultured for 5 days in E8 media with indicated additives. Phase contrast images show the survival rates of the cells. Note that most of the cells in control conditions died and few cells regrew, while Trehalose and CM-Dextran treated cells survived in high confluence but some of them started to differentiate. In FIG. 6b, qPCR of pluripotent and differentiated genes expression is shown for the samples in FIG. 6a.
First, initial screening assays were carried out with different additives. In this assay, human embryonic stem cells (ESCs) are grown to near confluence in E8 medium. The additives in the set of experiments described herein are selected from trehalose, CM-Dextran, lipid mix, heparin, glycogen and albumin. Cells that were untreated served as the controls. The protocol is set forth below:
1. Human ESCs were expanded with EDTA dissociation at 1:6 ratio.
2. E8 medium was changed every day.
3. After 2-3 days, when cell density reached around 70-80% confluency.
4. Change medium, and different treatments were applied to the cells in addition to fresh E8 every day.
5. Cells in E8 started to die 1-2 days after they reached 100% confluency.
6. Plates were stained with Alkaline Phosphatase staining (APS) kit (Vector Lab) to determine pluripotency maintenance. After a few days, the plates are stained with Alkaline Phosphatase Staining (APS). The cell viability reagent PrestoBlue can also be used to measure live cells. […]

Row | Molecule | efficiencies of cardiac differentiation (hPSCs) | cardiomyocyte differentiation by mRNA expression of NKX2-5, TBX5 and TNNT2 (NKX2-5, TBX5 and TNNT2) | cell death during differentiation [2] | cell death and differentiation at high density (Human ESCs) | pluripotent stem cell survival and differentiation efficiency (Human ESCs) | also measured
1 | Cc1ccc2nc(NC(=O)CSc3nc4c(c(=O)n3-c3ccccc3)SCC4)sc2c1 [IWP2] | comparable efficiencies of cardiac differentiation | – | – | – | – | cardiomyocyte purity at day 10 (hPSCs; H1 ESCs, CHIR99021 days 0-1, IWP2 days 2-5, no heparin, no albumin or B27): ≤ 50%; cardiac differentiation (CTNT and NKX2.5 staining) (hPSCs; increasing IWP2 dosage, without heparin): did not significantly enhance cardiac differentiation; Axin2 expression at day 5 ([1]; all 5 hPSC lines): inhibited; expression of cardiac progenitor marker GATA4 ([1]; qPCR, day 5, 7 different human PSC lines): promoted
2 | O=C(Nc1cccc2cccnc12)c1ccc(N2C(=O)[C@@H]3[C@H](C2=O)[C@@H]2C=C[C@H]3C2)cc1 [IWR1] | comparable efficiencies of cardiac differentiation | – | – | – | – | cell death and cardiomyocyte yield (H1 ESCs): caused more cell death and yielded fewer cardiomyocytes
3 | Oc1nc(-c2ccc(C(F)(F)F)cc2)nc2c1CSCC2 [XAV939] | comparable efficiencies of cardiac differentiation | – | – | – | – | –
4 | OC[C@H]1O[C@H](O[C@H]2O[C@H](CO)[C@@H](O)[C@H](O)[C@H]2O)[C@H](O)[C@@H](O)[C@@H]1O [trehalose, Trehalose] | – | promoted cardiomyocyte differentiation | suppressed cell death during differentiation | little cell death, and the cells differentiated | enhanced pluripotent stem cell survival and differentiation efficiency | –
5 | CM-dextran | – | promoted cardiomyocyte differentiation | suppressed cell death during differentiation | little cell death, and the cells differentiated | enhanced pluripotent stem cell survival and differentiation efficiency | –
6 | B1 | – | – | – | – | – | effect of heparin in the promotion of cardiac differentiation (hPSCs; co-treatment with heparinase I and heparin): dramatically blocked; cardiac cell differentiation seen with IWP2 treatment (hPSCs; heparinase I with IWP2): significantly suppressed
